Paper PMC8868332, “Creating Robust Antimicrobial Materials with Sticky Tyrocidines” (Antibiotics, 2022)
Where no end group is shown, it is not given here.

Tests used:
L. monocytogenes = conditions: cited from earlier work
Description: Table 2 Summary of the compounds used to compare with the Trc in creating robust non-covalent antimicrobial materials. | column: Minimum Inhibitory Concentration (μg/mL) / L. monocytogenes

Escherichia coli K12 = assay: Resazurin assay of surface activity of peptide-treated cellulose; assay type: cell-based; conditions: cellulose filters, 5.0 µg compound offered per 0.28 cm^2; normalised to untreated cellulose; Figure 6B, three biological and four technical repeats
Method: (§1) An aqueous solution of antimicrobial compound (100 µL of 50.0 µg/mL; 5% v/v acetonitrile) was incubated for two hours with the base material punch (0.28 cm^2), ensuring that 5.0 µg of compound was available for binding. Following the incubation, the antimicrobial compound solution was removed, and the samples washed twice with 100 µL sterile analytical quality water and dried in a 40 °C oven for 2 h. Treatment conditions were chosen to imitate large scale treatment/creation of packaging materials, such as aqueous solutions, followed by a drying step.
The antimicrobial activity of the Trc-containing materials and films were determined by a developed resazurin assay. Listeria monocytogenes B73 was streaked out from freezer stocks onto BHI agar plates (Brain Heart Infusion; 1.5% m/v agar) and incubated for 48 h at 37 °C until colonies were viable. Escherichia coli K12 was streaked out from freezer stocks onto LB plates (1% m/v NaCl, 1% m/v tryptone, 0.5% m/v yeast extract, 1.5% m/v agar in water) and incubated at 37 °C for 24 h. Starter cultures were prepared, by inoculating 1 mL medium with 3–5 colonies and growing the cells overnight at 37 °C at an angle, shaking at 150 RPM. […] This culture was then pipetted (10 µL) onto the treated and untreated materials in a 96-well assay plate and incubated for one hour at 37 °C. Following the incubation, 90 µL PBS (phosphate buffered saline; 0.8% m/v NaCl, 0.04% m/v KCl, 0.144% m/v Na2HPO4, 0.02% m/v KH2PO4; pH 7.4), and 10 µL resazurin dye (0.3 mg/mL in PBS) was added, followed by a further incubation at 37 °C. The conversion of the resazurin was measured at Ex530 and Em590 after 30 min for L. monocytogenes and 90 min for E. coli using the Tecan Spark 10 M Multimode Microplate Reader and controlled by the Spark Control^TM software, both provided by Tecan Group Ltd. (Mennedorf, Switzerland). […] The activity of the material was determined in terms of percentage inhibition by using the acquired fluorescence readings (F), with the following Equation: (1) %Inhibition of Target organism=100−(F of well−F of average blank)×100/(F of growth control−F of average blank).

[1] = general character summarised in Table 2; no reference given; cited from earlier work
Description: Table 2 Summary of the compounds used to compare with the Trc in creating robust non-covalent antimicrobial materials. | column: Character

E. coli = conditions: cited from earlier work
Description: Table 2 Summary of the compounds used to compare with the Trc in creating robust non-covalent antimicrobial materials. | column: Minimum Inhibitory Concentration (μg/mL) / E. coli

[2] = test system: Listeria monocytogenes B73; assay: Resazurin assay of surface activity of peptide-treated materials; assay type: cell-based; conditions: cellulose filters, 5.0 µg compound offered per 0.28 cm^2; normalised to untreated cellulose; Figure 6A, three biological and four technical repeats
Method: as §1
The antimicrobial activity of the Trc-containing materials and films were determined by a developed resazurin assay. […] The conversion of the resazurin was measured at Ex530 and Em590 after 30 min for L. monocytogenes and 90 min for E. coli using the Tecan Spark 10 M Multimode Microplate Reader and controlled by the Spark Control^TM software, both provided by Tecan Group Ltd. (Mennedorf, Switzerland). […] The activity of the material was determined in terms of percentage inhibition by using the acquired fluorescence readings (F), with the following Equation: (1) %Inhibition of Target organism=100−(F of well−F of average blank)×100/(F of growth control−F of average blank).

Compound	Minimum Inhibitory Concentration L. monocytogenes (L. monocytogenes)	% Inhibition of E. coli by peptide-treated cellulose (Escherichia coli K12)	Haemolytic character (Character) [1]	Solubility (Character) [1]	Minimum Inhibitory Concentration E. coli (E. coli)	% Inhibition of L. monocytogenes by peptide-treated cellulose [2]
CNC(C)C1CCC(N)C(OC2C(N)CC(N)C(OC3OCC(C)(O)C(NC)C3O)C2O)O1 (stereo not drawn) [Gentamicin]	0.5–4.0 [91, 92] μg/mL					
Leucocin A (KYYGNGVHCTKSGCSVNWGEAFSAGVHRLANGGNGFW; ends and bridges not checked; cysteine pairing not given here; UniProt P34034 25-61, looked up) [37-mer cationic, amphipathic disulphide-bonded bacteriocin from Leuconostoc gelidum UAL187]	0.98–1.98 [87] μg/mL	low levels of inhibition	non-haemolytic	water-soluble		
Magainin 2		“negative” inhibition			10–50 [85] μg/mL	
Melittin	0.315 ± 0.008 [88] μg/mL	low levels of inhibition	haemolytic	water-soluble	15–42.5 [89, 90] μg/mL	
PGLa		“negative” inhibition			10–50 [86] μg/mL	
gramicidin S [GS]	11 ± 0.20 [34] μg/mL	full inhibition			3–12.5 [84] μg/mL	100%
